Results: PubChem BioAssay AID248 (DTP/NCI, 2004)
Inconclusive results and toxic doses are left out. No stated cut-off is given here; in the data, active means T/C of 150% or more; inactive means T/C below 125%.

Test system: L1210 leukemia ip in BDF1 mice, survival T/C
Assay: NCI In Vivo Anticancer Drug Screen. Data for tumor model L1210 Leukemia (intraperitoneal) in B6D2F1 (BDF1) mice
Conditions: endpoint: mean survival time, higher = longer survival
Method in brief: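 Value reflects the ratio of survival in compound-treated mice to survival in vehicle-treated controls, with both groups carrying the same transplanted tumor.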

[1] = dose: 100.0 mg/kg/injection, schedule: Q01DX001 (ip), vehicle: saline
[2] = dose: 100.0 mg/kg/injection, schedule: Q04DX003 (ip), vehicle: Klucel (hydroxypropylcellulose) (HPC)
[3] = dose: 200.0 mg/kg/injection, schedule: Q01DX001 (ip), vehicle: saline
[4] = dose: 200.0 mg/kg/injection, schedule: Q04DX003 (ip), vehicle: Klucel (hydroxypropylcellulose) (HPC)
[5] = dose: 400.0 mg/kg/injection, schedule: Q04DX003 (ip), vehicle: Klucel (hydroxypropylcellulose) (HPC)
[6] = dose: 100.0 mg/kg/injection, schedule: Q04DX002 (ip), vehicle: saline with Tween-80
[7] = dose: 200.0 mg/kg/injection, schedule: Q04DX002 (ip), vehicle: saline with Tween-80
[8] = dose: 400.0 mg/kg/injection, schedule: Q04DX002 (ip), vehicle: saline with Tween-80
[9] = dose: 100.0 mg/kg/injection, schedule: Q01DX009 (ip), vehicle: saline with Tween-80
[10] = dose: 200.0 mg/kg/injection, schedule: Q01DX009 (ip), vehicle: saline with Tween-80
[11] = dose: 400.0 mg/kg/injection, schedule: Q01DX009 (ip), vehicle: saline with Tween-80
[12] = dose: 100.0 mg/kg/injection, schedule: Q01DX001 (ip), vehicle: other
[13] = dose: 200.0 mg/kg/injection, schedule: Q01DX001 (ip), vehicle: other
[14] = dose: 400.0 mg/kg/injection, schedule: Q01DX001 (ip), vehicle: other

Measured: T/C

CNC(=O)Oc1cccc(C)c1
inactive: dose: 25.0 mg/kg/injection, schedule: Q01DX009 (ip), vehicle: saline with Tween-80 97 % of control | dose: 50.0 mg/kg/injection, schedule: Q01DX009 (ip), vehicle: saline with Tween-80 94 % of control

O=C1Sc2ccccc2C1=O
inactive: [1] 94 % of control | [2] 91 % of control | [3] 103 % of control | [4] 94 % of control | [5] 102 % of control

CCCCOCCC1CCNCC1
inactive: dose: 12.5 mg/kg/injection, schedule: Q01DX009 (ip), vehicle: saline 97 % of control | dose: 12.5 mg/kg/injection, schedule: Q04DX003 (ip), vehicle: saline 96 % of control | dose: 25.0 mg/kg/injection, schedule: Q01DX009 (ip), vehicle: saline 101 % of control | dose: 25.0 mg/kg/injection, schedule: Q04DX003 (ip), vehicle: saline 97 % of control | dose: 50.0 mg/kg/injection, schedule: Q01DX009 (ip), vehicle: saline 101 % of control | dose: 50.0 mg/kg/injection, schedule: Q04DX003 (ip), vehicle: saline 100 % of control

c1cc[n+]2c(c1)CC[n+]1ccccc1CC2
inactive: dose: 50.0 mg/kg/injection, schedule: Q01DX001 (ip), vehicle: carboxymethylcellulose (CMC) 106 % of control | dose: 100.0 mg/kg/injection, schedule: Q01DX001 (ip), vehicle: carboxymethylcellulose (CMC) 100 % of control | dose: 200.0 mg/kg/injection, schedule: Q01DX001 (ip), vehicle: carboxymethylcellulose (CMC) 122 % of control | dose: 400.0 mg/kg/injection, schedule: Q01DX001 (ip), vehicle: carboxymethylcellulose (CMC) 106 % of control

CN1Cc2ccccc2/C=C\c2ccccc21
inactive: dose: 100.0 mg/kg/injection, schedule: Q04DX002 (ip), vehicle: Klucel (hydroxypropylcellulose) (HPC) 103 % of control | dose: 200.0 mg/kg/injection, schedule: Q04DX002 (ip), vehicle: Klucel (hydroxypropylcellulose) (HPC) 106 % of control | dose: 400.0 mg/kg/injection, schedule: Q04DX002 (ip), vehicle: Klucel (hydroxypropylcellulose) (HPC) 100 % of control

c1ccc([P+](C[P+](c2ccccc2)(c2ccccc2)c2ccccc2)(c2ccccc2)c2ccccc2)cc1
active: dose: 0.39 mg/kg/injection, schedule: Q01DX009 (ip), vehicle: Klucel (hydroxypropylcellulose) (HPC) 175 % of control
inactive: dose: 0.19 mg/kg/injection, schedule: Q01DX009 (ip), vehicle: Klucel (hydroxypropylcellulose) (HPC) 98 % of control | dose: 0.78 mg/kg/injection, schedule: Q01DX009 (ip), vehicle: Klucel (hydroxypropylcellulose) (HPC) 102 % of control | dose: 1.56 mg/kg/injection, schedule: Q01DX009 (ip), vehicle: Klucel (hydroxypropylcellulose) (HPC) 97 % of control | dose: 1.56 mg/kg/injection, schedule: Q04DX003 (ip), vehicle: Klucel (hydroxypropylcellulose) (HPC) 93 % of control | dose: 3.12 mg/kg/injection, schedule: Q01DX009 (ip), vehicle: Klucel (hydroxypropylcellulose) (HPC) 97 % of control | dose: 3.12 mg/kg/injection, schedule: Q04DX003 (ip), vehicle: Klucel (hydroxypropylcellulose) (HPC) 92 % of control | dose: 6.25 mg/kg/injection, schedule: Q04DX003 (ip), vehicle: Klucel (hydroxypropylcellulose) (HPC) 90 % of control

CCC(=O)Nc1ccc(F)cc1
inactive: dose: 100.0 mg/kg/injection, schedule: Q01DX001 (ip), vehicle: Klucel (hydroxypropylcellulose) (HPC) 105 % of control | dose: 100.0 mg/kg/injection, schedule: Q01DX009 (ip), vehicle: Klucel (hydroxypropylcellulose) (HPC) 99 % of control | [2] 94 % of control | dose: 200.0 mg/kg/injection, schedule: Q01DX001 (ip), vehicle: Klucel (hydroxypropylcellulose) (HPC) 99 % of control | dose: 200.0 mg/kg/injection, schedule: Q01DX009 (ip), vehicle: Klucel (hydroxypropylcellulose) (HPC) 113 % of control | [4] 94 % of control | dose: 400.0 mg/kg/injection, schedule: Q01DX001 (ip), vehicle: Klucel (hydroxypropylcellulose) (HPC) 93 % of control | dose: 400.0 mg/kg/injection, schedule: Q01DX009 (ip), vehicle: Klucel (hydroxypropylcellulose) (HPC) 120 % of control | [5] 105 % of control

CCCCC(=O)NCC(=O)N1CCC(C(=O)NCCCCC(=O)OC)C1 (centres undefined)
inactive: dose: 100.0 mg/kg/injection, schedule: Q04DX002 (ip), vehicle: saline 96 % of control | dose: 200.0 mg/kg/injection, schedule: Q04DX002 (ip), vehicle: saline 115 % of control | dose: 400.0 mg/kg/injection, schedule: Q04DX002 (ip), vehicle: saline 104 % of control

Cc1c2oc3c(C)ccc(C(=O)OCCN4CCN(c5ccccc5)CC4)c3nc-2c(C(=O)OCCN2CCN(c3ccccc3)CC2)c(N)c1=O
inactive: [6] 92 % of control | [7] 103 % of control | [8] 103 % of control

CN(C)c1nc2ccccc2n1C1OC(CO)C(O)C1O (centres undefined)
inactive: dose: 100.0 mg/kg/injection, schedule: Q01DX001 (ip), vehicle: acetone 106 % of control | dose: 200.0 mg/kg/injection, schedule: Q01DX001 (ip), vehicle: acetone 103 % of control | dose: 400.0 mg/kg/injection, schedule: Q01DX001 (ip), vehicle: acetone 97 % of control

CCCCCC(O)C(CO)CCCC (centres undefined)
inactive: [9] 100 % of control | [10] 95 % of control | [11] 94 % of control

C=CCCCCCCCCC(=O)NCc1ccncc1
inactive: dose: 100.0 mg/kg/injection, schedule: Q04DX003 (ip), vehicle: saline with Tween-80 90 % of control

CCCCCCC[n+]1ccc(C#N)cc1
inactive: dose: 75.0 mg/kg/injection, schedule: Q01DX001 (ip), vehicle: saline 103 % of control

CC(=O)OC1C(C(=O)O)CC(C(=O)O)C1OC(C)=O (centres undefined)
inactive: dose: 88.0 mg/kg/injection, schedule: Q01DX001 (ip), vehicle: saline 88 % of control | [1] 108 % of control | dose: 133.0 mg/kg/injection, schedule: Q01DX001 (ip), vehicle: saline 98 % of control | [3] 98 % of control | dose: 300.0 mg/kg/injection, schedule: Q01DX001 (ip), vehicle: saline 98 % of control | dose: 400.0 mg/kg/injection, schedule: Q01DX001 (ip), vehicle: saline 106 % of control

CCc1cc2c(cc1C(=O)/C=C\c1ccco1)C(C)(C)CCC2(C)C
inactive: [9] 103 % of control | [6] 96 % of control | [10] 95 % of control | [7] 93 % of control | [11] 106 % of control | [8] 93 % of control

Cn1c(=O)c2[nH]c(CC3=CCCCC3)nc2n(C)c1=O
inactive: dose: 50.0 mg/kg/injection, schedule: Q01DX001 (ip), vehicle: other 97 % of control | [12] 92 % of control | [13] 95 % of control | [14] 90 % of control

CCC(=O)c1ccc(N2CCOCC2)cc1
inactive: dose: 50.0 mg/kg/injection, schedule: Q04DX003 (ip), vehicle: Klucel (hydroxypropylcellulose) (HPC) 97 % of control | [12] 107 % of control | [2] 101 % of control | [13] 107 % of control | [4] 108 % of control | [14] 107 % of control

O=C(Nc1ccc(NC(=O)c2ccc(C3=NCCCN3)cc2)cc1)Nc1ccc(C2=NCCCN2)cc1
inactive: dose: 0.62 mg/kg/injection, schedule: Q01DX Z (ip), vehicle: carboxymethylcellulose (CMC) 103 % of control | dose: 1.25 mg/kg/injection, schedule: Q01DX Z (ip), vehicle: carboxymethylcellulose (CMC) 110 % of control | dose: 2.5 mg/kg/injection, schedule: Q01DX Z (ip), vehicle: carboxymethylcellulose (CMC) 105 % of control | dose: 21.0 mg/kg/injection, schedule: Q01DX Z (ip), vehicle: carboxymethylcellulose (CMC) 113 % of control | dose: 62.0 mg/kg/injection, schedule: Q01DX Z (oral), vehicle: carboxymethylcellulose (CMC) 91 % of control | dose: 125.0 mg/kg/injection, schedule: Q01DX Z (oral), vehicle: carboxymethylcellulose (CMC) 102 % of control | dose: 250.0 mg/kg/injection, schedule: Q01DX Z (oral), vehicle: carboxymethylcellulose (CMC) 98 % of control | dose: 500.0 mg/kg/injection, schedule: Q01DX Z (oral), vehicle: carboxymethylcellulose (CMC) 100 % of control
active: dose: 5.0 mg/kg/injection, schedule: Q01DX Z (ip), vehicle: carboxymethylcellulose (CMC) 174 % of control | dose: 6.0 mg/kg/injection, schedule: Q01DX Z (ip), vehicle: carboxymethylcellulose (CMC) 153 % of control | dose: 8.0 mg/kg/injection, schedule: Q01DX Z (ip), vehicle: carboxymethylcellulose (CMC) 185 % of control
